# Measured values: ChEMBL document CHEMBL1201862, “PubChem BioAssay data set” (2004)
#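 Results reflect a 48-hour exposure of cells in 96-well plates to compound at five concentrations. GI50: concentration for 50% inhibition of growth.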 Active and inactive are the calls of the source. Rule as the data show it: active = GI50 up to about 1.1 µM and inactive = higher.
# Key:
# Test in all cases: inhibition of tumour cell growth, NCI panel, 48 h
# SF-268 = system: SF-268
# MDA-MB-435 = system: MDA-MB-435
# Malme-3M = system: Malme-3M
# TK-10 = system: TK-10
# NCI-H460 = system: NCI-H460
# K562 = system: K562
# SNB-19 = system: SNB-19
# UACC-257 = system: UACC-257
# SK-OV-3 = system: SK-OV-3
# HCT-15 = system: HCT-15
# SW-620 = system: SW-620
# HOP-62 = system: HOP-62
# 786-0 = system: 786-0
# HOP-92 = system: HOP-92
# RXF 393 = system: RXF 393
# PC-3 = system: PC-3
# SK-MEL-5 = system: SK-MEL-5
# SN12C = system: SN12C
# KM12 = system: KM12
# CAKI-1 = system: CAKI-1
# SNB-75 = system: SNB-75
# SK-MEL-28 = system: SK-MEL-28
# MDA-N = system: MDA-N
# HT-29 = system: HT-29
# HCC 2998 = system: HCC 2998
# UO-31 = system: UO-31
# A498 = system: A498
# OVCAR-5 = system: OVCAR-5
# SF-295 = system: SF-295
# NCI/ADR-RES = system: NCI/ADR-RES
# DU-145 = system: DU-145
# OVCAR-8 = system: OVCAR-8
# MCF7 = system: MCF7
# EKVX = system: EKVX
# OVCAR-3 = system: OVCAR-3
# RPMI-8226 = system: RPMI-8226
# MDA-MB-231 = system: MDA-MB-231
# COLO 205 = system: COLO 205
# NCI-H23 = system: NCI-H23
# OVCAR-4 = system: OVCAR-4
# MOLT-4 = system: MOLT-4
# Hs-578T = system: Hs-578T
# LOX IMVI = system: LOX IMVI
# HCT-116 = system: HCT-116
# M14 = system: M14
# U-251 = system: U-251
# NCI-H226 = system: NCI-H226
# BT-549 = system: BT-549
# A549 = system: A549
# CCRF-CEM = system: CCRF-CEM
# SF-539 = system: SF-539
# UACC-62 = system: UACC-62
# T47D = system: T47D
# SK-MEL-2 = system: SK-MEL-2
# HL-60 = system: HL-60
# ACHN = system: ACHN
# IGROV-1 = system: IGROV-1
# NCI-H522 = system: NCI-H522
compound,measurement,setting,value
COc1ccc(OCc2nc3cc(C(F)(F)F)ccc3nc2-c2ccccc2)cc1,GI50,SF-268,> 100 µM (inactive)
same,GI50,MDA-MB-435,> 100 µM (inactive)
same,GI50,Malme-3M,> 100 µM (inactive)
same,GI50,TK-10,> 100 µM (inactive)
same,GI50,NCI-H460,> 100 µM (inactive)
same,GI50,K562,> 100 µM (inactive)
same,GI50,SNB-19,> 100 µM (inactive)
same,GI50,UACC-257,> 100 µM (inactive)
same,GI50,SK-OV-3,> 100 µM (inactive)
same,GI50,HCT-15,> 100 µM
same,GI50,SW-620,> 100 µM (inactive)
same,GI50,HOP-62,> 100 µM (inactive)
same,GI50,786-0,> 100 µM (inactive)
same,GI50,HOP-92,> 100 µM (inactive)
same,GI50,RXF 393,> 100 µM (inactive)
same,GI50,PC-3,> 100 µM (inactive)
same,GI50,SK-MEL-5,> 100 µM (inactive)
same,GI50,SN12C,> 100 µM (inactive)
same,GI50,KM12,> 100 µM (inactive)
same,GI50,CAKI-1,> 100 µM (inactive)
same,GI50,SNB-75,> 100 µM (inactive)
same,GI50,SK-MEL-28,> 100 µM (inactive)
same,GI50,MDA-N,> 100 µM (inactive)
same,GI50,HT-29,> 100 µM (inactive)
same,GI50,HCC 2998,> 100 µM (inactive)
same,GI50,UO-31,> 100 µM (inactive)
same,GI50,A498,94.8 µM (inactive)
same,GI50,OVCAR-5,> 100 µM (inactive)
same,GI50,SF-295,> 100 µM (inactive)
same,GI50,NCI/ADR-RES,> 100 µM (inactive)
same,GI50,DU-145,> 100 µM (inactive)
same,GI50,OVCAR-8,> 100 µM (inactive)
same,GI50,MCF7,> 100 µM (inactive)
same,GI50,EKVX,> 100 µM (inactive)
same,GI50,OVCAR-3,> 100 µM (inactive)
same,GI50,RPMI-8226,> 100 µM (inactive)
same,GI50,MDA-MB-231,27.4 µM (inactive)
same,GI50,COLO 205,> 100 µM (inactive)
same,GI50,NCI-H23,> 100 µM (inactive)
same,GI50,OVCAR-4,> 100 µM (inactive)
same,GI50,MOLT-4,> 100 µM (inactive)
same,GI50,Hs-578T,> 100 µM (inactive)
same,GI50,LOX IMVI,> 100 µM (inactive)
same,GI50,HCT-116,> 100 µM (inactive)
same,GI50,M14,> 100 µM (inactive)
same,GI50,U-251,> 100 µM (inactive)
same,GI50,NCI-H226,> 100 µM (inactive)
same,GI50,BT-549,> 100 µM (inactive)
same,GI50,A549,> 100 µM (inactive)
same,GI50,CCRF-CEM,> 100 µM (inactive)
same,GI50,SF-539,> 100 µM (inactive)
same,GI50,UACC-62,> 100 µM (inactive)
same,GI50,T47D,13.5 µM (inactive)
same,GI50,SK-MEL-2,> 100 µM (inactive)
same,GI50,HL-60,> 100 µM (inactive)
same,GI50,ACHN,> 100 µM (inactive)
CNC(=O)CN(C)C(=O)CCC(=O)N(C)C,GI50,SF-268,> 100 µM (inactive)
same,GI50,MDA-MB-435,> 100 µM (inactive)
same,GI50,Malme-3M,> 100 µM (inactive)
same,GI50,TK-10,> 100 µM (inactive)
same,GI50,NCI-H460,> 100 µM (inactive)
same,GI50,K562,> 100 µM (inactive)
same,GI50,SNB-19,> 100 µM (inactive)
same,GI50,UACC-257,> 100 µM (inactive)
same,GI50,SK-OV-3,> 100 µM (inactive)
same,GI50,HCT-15,> 100 µM
same,GI50,SW-620,> 100 µM (inactive)
same,GI50,HOP-62,> 100 µM (inactive)
same,GI50,786-0,> 100 µM (inactive)
same,GI50,HOP-92,> 100 µM (inactive)
same,GI50,IGROV-1,> 100 µM (inactive)
same,GI50,PC-3,> 100 µM (inactive)
same,GI50,SK-MEL-5,> 100 µM (inactive)
same,GI50,SN12C,> 100 µM (inactive)
same,GI50,KM12,> 100 µM (inactive)
same,GI50,CAKI-1,> 100 µM (inactive)
same,GI50,SNB-75,> 100 µM (inactive)
same,GI50,SK-MEL-28,> 100 µM (inactive)
same,GI50,MDA-N,> 100 µM (inactive)
same,GI50,HT-29,> 100 µM (inactive)
same,GI50,HCC 2998,> 100 µM (inactive)
same,GI50,UO-31,> 100 µM (inactive)
same,GI50,A498,> 100 µM (inactive)
same,GI50,OVCAR-5,> 100 µM (inactive)
same,GI50,SF-295,> 100 µM (inactive)
same,GI50,NCI/ADR-RES,> 100 µM (inactive)
same,GI50,DU-145,> 100 µM (inactive)
same,GI50,OVCAR-8,> 100 µM (inactive)
same,GI50,MCF7,> 100 µM (inactive)
same,GI50,EKVX,> 100 µM (inactive)
same,GI50,OVCAR-3,> 100 µM (inactive)
same,GI50,RPMI-8226,> 100 µM (inactive)
same,GI50,MDA-MB-231,> 100 µM (inactive)
same,GI50,COLO 205,> 100 µM (inactive)
same,GI50,NCI-H23,> 100 µM (inactive)
same,GI50,MOLT-4,> 100 µM (inactive)
same,GI50,Hs-578T,> 100 µM (inactive)
same,GI50,LOX IMVI,> 100 µM (inactive)
same,GI50,HCT-116,> 100 µM (inactive)
same,GI50,M14,> 100 µM (inactive)
same,GI50,NCI-H522,> 100 µM (inactive)
same,GI50,U-251,> 100 µM (inactive)
same,GI50,NCI-H226,> 100 µM (inactive)
same,GI50,BT-549,> 100 µM (inactive)
same,GI50,A549,> 100 µM (inactive)
same,GI50,CCRF-CEM,> 100 µM (inactive)
same,GI50,SF-539,> 100 µM (inactive)
same,GI50,UACC-62,> 100 µM (inactive)
same,GI50,T47D,> 100 µM (inactive)
same,GI50,SK-MEL-2,> 100 µM (inactive)
same,GI50,HL-60,> 100 µM (inactive)
same,GI50,ACHN,> 100 µM (inactive)
